Reference: PubChem BioAssay AID1963972 (Molecular Pharmacology Branch, DTP, NCI, 2024)

System: 945468-187-T-J2-PDC spheroids viability
Experiment: Anticancer human tumor 945468-187-T-J2-PDC patient-derived rectal carcinoma cell line growth inhibition [PI3K]
Settings: spheroids with HUVEC and MSC; for IC50: curve of first compound; for viability, T/C: stronger effect = lower value
Outline: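 Tumor cells grown as multi-cell spheroids with HUVEC endothelial cells and MSC fibroblast-like stroma were treated with targeted agents combined with inavolisib, alpelisib, duvelisib or copanlisib. Doses fell in half-log steps from near clinical Cmax, else from 10 microM. Viability was measured.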

[1] = second compound 0.0316 µM, first compound 0.0316 µM
[2] = second compound 0.0316 µM, first compound 0.1 µM
[3] = second compound 0.0316 µM, first compound 0.316 µM
[4] = second compound 0.0316 µM, first compound 1 µM
[5] = second compound 0.0316 µM, first compound 3.16 µM
[6] = second compound 0.0316 µM, first compound 10 µM
[7] = second compound 0.1 µM, first compound 0.0316 µM
[8] = second compound 0.1 µM, first compound 0.1 µM
[9] = second compound 0.1 µM, first compound 0.316 µM
[10] = second compound 0.1 µM, first compound 1 µM
[11] = second compound 0.1 µM, first compound 3.16 µM
[12] = second compound 0.1 µM, first compound 10 µM
[13] = second compound 0.316 µM, first compound 0.0316 µM
[14] = second compound 0.316 µM, first compound 0.1 µM
[15] = second compound 0.316 µM, first compound 0.316 µM
[16] = second compound 0.316 µM, first compound 1 µM
[17] = second compound 0.316 µM, first compound 3.16 µM
[18] = second compound 0.316 µM, first compound 10 µM
[19] = second compound 1 µM, first compound 0.0316 µM
[20] = second compound 1 µM, first compound 0.1 µM
[21] = second compound 1 µM, first compound 0.316 µM
[22] = second compound 1 µM, first compound 1 µM
[23] = second compound 1 µM, first compound 3.16 µM
[24] = second compound 1 µM, first compound 10 µM
[25] = second compound 3.16 µM, first compound 0.0316 µM
[26] = second compound 3.16 µM, first compound 0.1 µM
[27] = second compound 3.16 µM, first compound 0.316 µM
[28] = second compound 3.16 µM, first compound 1 µM
[29] = second compound 3.16 µM, first compound 3.16 µM
[30] = second compound 3.16 µM, first compound 10 µM
[31] = second compound 10 µM, first compound 0.0316 µM
[32] = second compound 10 µM, first compound 0.1 µM
[33] = second compound 10 µM, first compound 0.316 µM
[34] = second compound 10 µM, first compound 1 µM
[35] = second compound 10 µM, first compound 3.16 µM
[36] = second compound 10 µM, first compound 10 µM
[37] = second compound 0.0316 µM, first compound 0.00316 µM
[38] = second compound 0.0316 µM, first compound 0.01 µM
[39] = second compound 0.1 µM, first compound 0.00316 µM
[40] = second compound 0.1 µM, first compound 0.01 µM
[41] = second compound 0.316 µM, first compound 0.00316 µM
[42] = second compound 0.316 µM, first compound 0.01 µM
[43] = second compound 1 µM, first compound 0.00316 µM
[44] = second compound 1 µM, first compound 0.01 µM
[45] = second compound 3.16 µM, first compound 0.00316 µM
[46] = second compound 3.16 µM, first compound 0.01 µM
[47] = second compound 10 µM, first compound 0.00316 µM
[48] = second compound 10 µM, first compound 0.01 µM
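Note: spheroids exposed to compounds for seven days before reading.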

With CC(C)NCC(C(=O)N1CCN(c2ncnc3c2C(C)CC3O)CC1)c1ccc(Cl)cc1 (stereo not drawn) + Cc1nc(NC(=O)N2CCCC2C(N)=O)sc1-c1ccnc(C(C)(C)C(F)(F)F)c1 the IC50 (second compound 0.0316 µM) was > 10000 nM, the IC50 (second compound 0.1 µM) was > 10000 nM and the IC50 (second compound 0.316 µM) was > 10000 nM. For the same molecule, the IC50 (second compound 1 µM) was > 10000 nM, the IC50 (second compound 3.16 µM) was > 10000 nM and the IC50 (second compound 10 µM) was > 10000 nM. For the same molecule, the viability, T/C [1] was 110%, the viability, T/C [2] was 138% and the viability, T/C [3] was 140%. The viability, T/C [4] was 110%, the viability, T/C [5] was 108% and the viability, T/C [6] was 96.8%. For the same molecule, the viability, T/C [7] was 111%, the viability, T/C [8] was 109% and the viability, T/C [9] was 125%. The viability, T/C [10] was 103%, the viability, T/C [11] was 106% and the viability, T/C [12] was 115%. The viability, T/C [13] was 99%, the viability, T/C [14] was 117% and the viability, T/C [15] was 99.7%. For the same molecule, the viability, T/C [16] was 87.8%, the viability, T/C [17] was 119% and the viability, T/C [18] was 98.4%. It also gave a viability, T/C [19] of 106%, a viability, T/C [20] of 119% and a viability, T/C [21] of 109%. The viability, T/C [22] was 88.6%, the viability, T/C [23] was 121% and the viability, T/C [24] was 98.6%. For the same molecule, the viability, T/C [25] was 79.6%, the viability, T/C [26] was 90.4% and the viability, T/C [27] was 103%. It also gave a viability, T/C [28] of 95.8%, a viability, T/C [29] of 81.5% and a viability, T/C [30] of 98.2%. It also gave a viability, T/C [31] of 95.8%, a viability, T/C [32] of 76.9% and a viability, T/C [33] of 73.6%. For the same molecule, the viability, T/C [34] was 88.5%, the viability, T/C [35] was 93.8% and the viability, T/C [36] was 82.5%.
CCN1CCN(Cc2ccc(Nc3ncc(F)c(-c4cc(F)c5nc(C)n(C(C)C)c5c4)n3)nc2)CC1 + Cc1nc(NC(=O)N2CCCC2C(N)=O)sc1-c1ccnc(C(C)(C)C(F)(F)F)c1 was tested, and the IC50 (second compound 0.0316 µM) was > 1000 nM, the IC50 (second compound 0.1 µM) was > 1000 nM and the IC50 (second compound 0.316 µM) was > 1000 nM. For the same molecule, the IC50 (second compound 1 µM) was > 1000 nM, the IC50 (second compound 3.16 µM) was 753 nM and the IC50 (second compound 10 µM) was 322 nM. It also gave a viability, T/C [37] of 84.8%, a viability, T/C [38] of 103% and a viability, T/C [1] of 123%. For the same molecule, the viability, T/C [2] was 91.5%, the viability, T/C [3] was 107% and the viability, T/C [4] was 105%. The viability, T/C [39] was 124%, the viability, T/C [40] was 104% and the viability, T/C [7] was 131%. The viability, T/C [8] was 88.9%, the viability, T/C [9] was 103% and the viability, T/C [10] was 76.2%. For the same molecule, the viability, T/C [41] was 103%, the viability, T/C [42] was 91.8% and the viability, T/C [13] was 123%. The viability, T/C [14] was 104%, the viability, T/C [15] was 118% and the viability, T/C [16] was 73.6%. For the same molecule, the viability, T/C [43] was 118%, the viability, T/C [44] was 108% and the viability, T/C [19] was 115%. It also gave a viability, T/C [20] of 108%, a viability, T/C [21] of 96.8% and a viability, T/C [22] of 58.9%. For the same molecule, the viability, T/C [45] was 119%, the viability, T/C [46] was 92.9% and the viability, T/C [25] was 111%. It also gave a viability, T/C [26] of 93.5%, a viability, T/C [27] of 84.2% and a viability, T/C [28] of 38.7%. It also gave a viability, T/C [47] of 81.5%, a viability, T/C [48] of 84.4% and a viability, T/C [31] of 94%. It also gave a viability, T/C [32] of 66.7%, a viability, T/C [33] of 52.8% and a viability, T/C [34] of 28.1%.
In the case of C[C@@H](NC(=O)c1ncnc(N)c1Cl)c1ncc(C(=O)Nc2cc(C(F)(F)F)c(Cl)cn2)s1 + Cc1nc(NC(=O)N2CCCC2C(N)=O)sc1-c1ccnc(C(C)(C)C(F)(F)F)c1, the IC50 (second compound 0.0316 µM) is reported as > 10000 nM, the IC50 (second compound 0.1 µM) is reported as > 10000 nM and the IC50 (second compound 0.316 µM) is reported as > 10000 nM. The IC50 (second compound 1 µM) was > 10000 nM, the IC50 (second compound 3.16 µM) was > 10000 nM and the IC50 (second compound 10 µM) was > 10000 nM. The viability, T/C [1] was 94.3%, the viability, T/C [2] was 92.5% and the viability, T/C [3] was 77.2%. For the same molecule, the viability, T/C [4] was 91.5%, the viability, T/C [5] was 96.2% and the viability, T/C [6] was 69.2%. It also gave a viability, T/C [7] of 100%, a viability, T/C [8] of 80.3% and a viability, T/C [9] of 95.8%. For the same molecule, the viability, T/C [10] was 77.4%, the viability, T/C [11] was 105% and the viability, T/C [12] was 93.7%. The viability, T/C [13] was 99.8%, the viability, T/C [14] was 82.9% and the viability, T/C [15] was 123%. The viability, T/C [16] was 93.4%, the viability, T/C [17] was 87% and the viability, T/C [18] was 85%. For the same molecule, the viability, T/C [19] was 91.4%, the viability, T/C [20] was 102% and the viability, T/C [21] was 99%. The viability, T/C [22] was 102%, the viability, T/C [23] was 81.1% and the viability, T/C [24] was 86.1%. It also gave a viability, T/C [25] of 90.8%, a viability, T/C [26] of 91.5% and a viability, T/C [27] of 92.4%. For the same molecule, the viability, T/C [28] was 89%, the viability, T/C [29] was 89.5% and the viability, T/C [30] was 83%. For the same molecule, the viability, T/C [31] was 76.3%, the viability, T/C [32] was 70.1% and the viability, T/C [33] was 85.7%. The viability, T/C [34] was 68.7%, the viability, T/C [35] was 72.2% and the viability, T/C [36] was 80.2%.
With Cn1ncnc1[C@H]1c2n[nH]c(=O)c3cc(F)cc(c23)N[C@@H]1c1ccc(F)cc1 + Cc1nc(NC(=O)N2CCCC2C(N)=O)sc1-c1ccnc(C(C)(C)C(F)(F)F)c1 the IC50 (second compound 0.0316 µM) was > 100 nM, the IC50 (second compound 0.1 µM) was > 100 nM and the IC50 (second compound 0.316 µM) was > 100 nM. The IC50 (second compound 1 µM) was > 100 nM, the IC50 (second compound 3.16 µM) was > 100 nM and the IC50 (second compound 10 µM) was > 100 nM. For the same molecule, the viability, T/C (second compound 0.0316 µM, first compound 0.000316 µM) was 103%, the viability, T/C (second compound 0.0316 µM, first compound 0.001 µM) was 83.4% and the viability, T/C [37] was 130%. The viability, T/C [38] was 100%, the viability, T/C [1] was 91.6% and the viability, T/C [2] was 130%. The viability, T/C (second compound 0.1 µM, first compound 0.000316 µM) was 106%, the viability, T/C (second compound 0.1 µM, first compound 0.001 µM) was 109% and the viability, T/C [39] was 129%. The viability, T/C [40] was 91.2%, the viability, T/C [7] was 117% and the viability, T/C [8] was 131%. The viability, T/C (second compound 0.316 µM, first compound 0.000316 µM) was 110%, the viability, T/C (second compound 0.316 µM, first compound 0.001 µM) was 119% and the viability, T/C [41] was 89.4%. The viability, T/C [42] was 82.2%, the viability, T/C [13] was 117% and the viability, T/C [14] was 117%. It also gave a viability, T/C (second compound 1 µM, first compound 0.000316 µM) of 108%, a viability, T/C (second compound 1 µM, first compound 0.001 µM) of 104% and a viability, T/C [43] of 103%. For the same molecule, the viability, T/C [44] was 119%, the viability, T/C [19] was 134% and the viability, T/C [20] was 89.3%. The viability, T/C (second compound 3.16 µM, first compound 0.000316 µM) was 94%, the viability, T/C (second compound 3.16 µM, first compound 0.001 µM) was 97.1% and the viability, T/C [45] was 86.5%. The viability, T/C [46] was 90.2%, the viability, T/C [25] was 90.4% and the viability, T/C [26] was 92%. For the same molecule, the viability, T/C (second compound 10 µM, first compound 0.000316 µM) was 99.3%, the viability, T/C (second compound 10 µM, first compound 0.001 µM) was 85.5% and the viability, T/C [47] was 88.6%. For the same molecule, the viability, T/C [48] was 77.8%, the viability, T/C [31] was 91.5% and the viability, T/C [32] was 89.8%.
